Assay results as given in patent US6914045B2, “Glycopeptide antibiotics” (Wyeth Holdings Corporation, priority 2001, dated 2005).
In brackets after ≈: the same amount, converted by molar mass.

Columns and labels:
Enterococcus sp. = test: in vitro antibacterial evaluation, MIC by broth dilution; format: cell-based; details: broth dilution, 18 hours at 35° C.
How it was run: (§1)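 Test organisms, which included recent clinical isolates resistant to methicillin, penicillin and/or vancomycin, were inoculated at 5×10^5 CFU/mL into Muller-Hinton II […] containing antibiotic at 64-0.06 μg/mL. Minimum inhibitory concentrations were then read as the lowest level inhibiting growth.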

Streptococcus sp. = test: as above; format: cell-based; details: broth dilution, 18 hours at 35° C.
How it was run: as §1

Escherichia coli = test: as above; format: cell-based; details: 18 hours at 35° C.
How it was run: as §1

Staphylococcus sp. = test: as above; format: cell-based; details: broth dilution, 18 hours at 35° C.
How it was run: as §1

[1] = clinical pathology (serum clinical chemistry) in mice; format: in vivo; details: CD-1 mice, 20 mg/kg intravenously daily for 9 days, sera day 10
Experimental: 20-day-old CD-1 mice were divided into a vehicle control group (5 mice) and a treatment group (5 mice). Samples of glycopeptide antibiotics were administered at 20 mg/kg intravenously daily for 9 days.

[2] = anatomic pathology (histopathology of heart and kidney) in mice; format: in vivo; details: CD-1 mice, 20 mg/kg intravenously daily for 9 days, necropsy day 10, microscopic histopathology
Experimental: Samples of tissues from necropsied mice were formalin-fixed, paraffin-embedded, sectioned, stained with hematoxylin and eosin, and examined microscopically. Histopathologic findings were recorded. These findings were subjectively graded on a scale corresponding to slight, mild, moderate, marked and severe as compared to untreated controls.

[3] = system: Staphylococcus aureus-SMITH (GC 4543); test: acute lethal infection in mice; format: in vivo; details: acute lethal infection, female CD-1 mice, intraperitoneal challenge, intravenous 30 min. after infection, 7 day survival
How it was run: (§2)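 Female CD-1 mice (20+/−2 gm) were infected intraperitoneally with enough bacteria, suspended in trypticase soy broth or hog gastric mucin, to kill untreated controls within 24-48 hr. Compound in saline or 5% dextrose was given intravenously 30 min post-infection, five mice per dose. ED50 came from pooled 7 day survival of 3 tests.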

[4] = system: Streptococcus pneumoniae (GC 1894); test: acute lethal infection in mice; format: in vivo; details: female CD-1 mice, intraperitoneal challenge, intravenous 30 min. after infection, 7 day survival
How it was run: as §2

With `CC(c1ccccc1)C1NC(=O)CNC(=O)C(CO)NC(=O)C(C(O)C2CNC(=N)N2C2OC(CO)C(O)C(O)C2O)NC(=O)C(C(O)C2CNC(=N)N2)NC(=O)C(Cc2ccc(OC3OC(CO)C(OC4OC5COC(c6ccccc6)OC5C(O)C4O)C(O)C3O)cc2)NC1=O` (centres unmarked) [Example 104, Cyclo[glycyl-3-methylphenylalanyl-O-[4-O-(4,6-O-benzylidenehexopyranosyl)hexopyranosyl]-tyrosyl-3-(2-iminoimidazolidin-4-yl)seryl-3-(3-hexopyranosyl-2-iminoimidazolidin-4-yl)-serylseryl]] the “MIC Enterococcus avium (GC 4558)” value (Enterococcus sp.; Enterococcus avium (GC 4558)) was 2 to 4 µg/mL, the “MIC Enterococcus faecalis (ATCC 29212)” value (Enterococcus sp.; Enterococcus faecalis (ATCC 29212)) was 2 to 4 µg/mL and the “MIC Enterococcus faecalis (GC 2242)” value (Enterococcus sp.; Enterococcus faecalis (GC 2242)) was 2 µg/mL (≈ 1.45 µM). For the same compound, the “MIC Enterococcus faecalis (GC 2691)” value (Enterococcus sp.; Enterococcus faecalis (GC 2691)) was 4 µg/mL (≈ 2.89 µM), the “MIC Enterococcus faecalis (GC 3059)” value (Enterococcus sp.; Enterococcus faecalis (GC 3059)) was 4 µg/mL (≈ 2.89 µM) and the “MIC Enterococcus faecalis (GC 4552)” value (Enterococcus sp.; Enterococcus faecalis (GC 4552)) was 4 µg/mL (≈ 2.89 µM). For the same compound, the “MIC Enterococcus faecalis (GC 4553)” value (Enterococcus sp.; Enterococcus faecalis (GC 4553)) was 4 µg/mL (≈ 2.89 µM), the “MIC Enterococcus faecalis (GC 4554)” value (Enterococcus sp.; Enterococcus faecalis (GC 4554)) was 4 µg/mL (≈ 2.89 µM) and the “MIC Enterococcus faecalis (GC 6189)” value (Enterococcus sp.; Enterococcus faecalis (GC 6189)) was 2 µg/mL (≈ 1.45 µM). For the same compound, the “MIC Enterococcus faecium (GC 2243)” value (Enterococcus sp.; Enterococcus faecium (GC 2243)) was 2 µg/mL (≈ 1.45 µM), the “MIC Enterococcus faecium (GC 4556)” value (Enterococcus sp.; Enterococcus faecium (GC 4556)) was 2 to 4 µg/mL and the “MIC Enterococcus faecium (GC 4557)” value (Enterococcus sp.; Enterococcus faecium (GC 4557)) was 2 µg/mL (≈ 1.45 µM). The “MIC Enterococcus faecalis (ATCC 29212)” value (Enterococcus sp.; strain ATCC 29212) was 2 to 4 µg/mL, the “MIC Enterococcus faecalis (GC 2242)” value (Enterococcus sp.; strain GC 2242) was 2 µg/mL (≈ 1.45 µM) and the “MIC Enterococcus faecium (GC 2243)” value (Enterococcus sp.; strain GC 2243) was 2 µg/mL (≈ 1.45 µM). The “MIC Enterococcus faecalis (GC 2691)” value (Enterococcus sp.; strain GC 2691) was 4 µg/mL (≈ 2.89 µM), the “MIC Enterococcus faecalis (GC 3059)” value (Enterococcus sp.; strain GC 3059) was 4 µg/mL (≈ 2.89 µM) and the “MIC Enterococcus faecalis (GC 4552)” value (Enterococcus sp.; strain GC 4552) was 4 µg/mL (≈ 2.89 µM). For the same compound, the “MIC Enterococcus faecalis (GC 4553)” value (Enterococcus sp.; strain GC 4553) was 4 µg/mL (≈ 2.89 µM), the “MIC Enterococcus faecalis (GC 4554)” value (Enterococcus sp.; strain GC 4554) was 4 µg/mL (≈ 2.89 µM) and the “MIC Enterococcus faecium (GC 4556)” value (Enterococcus sp.; strain GC 4556) was 2 to 4 µg/mL. For the same compound, the “MIC Enterococcus faecium (GC 4557)” value (Enterococcus sp.; strain GC 4557) was 2 µg/mL (≈ 1.45 µM), the “MIC Enterococcus avium (GC 4558)” value (Enterococcus sp.; strain GC 4558) was 2 to 4 µg/mL and the “MIC Enterococcus faecalis (GC 6189)” value (Enterococcus sp.; strain GC 6189) was 2 µg/mL (≈ 1.45 µM). For the same compound, the “MIC Streptococcus agalactiae (GC 4564)” value (Streptococcus sp.; Streptococcus agalactiae (GC 4564)) was <0.12 to 0.25 µg/mL, the “MIC Streptococcus pneumoniae (ATCC 6301)” value (Streptococcus sp.; Streptococcus pneumoniae (ATCC 6301)) was <0.12 µg/mL and the “MIC Streptococcus pneumoniae (GC 1894)” value (Streptococcus sp.; Streptococcus pneumoniae (GC 1894)) was <0.12 µg/mL. The “MIC Streptococcus pneumoniae (GC 4565)” value (Streptococcus sp.; Streptococcus pneumoniae (GC 4565)) was <0.12 µg/mL, the “MIC Streptococcus pyogenes (GC 4563)” value (Streptococcus sp.; Streptococcus pyogenes (GC 4563)) was <0.12 µg/mL and the “MIC Streptococcus pneumoniae (ATCC 6301)” value (Streptococcus sp.; strain ATCC 6301) was <0.12 µg/mL. For the same compound, the “MIC Streptococcus pneumoniae (GC 1894)” value (Streptococcus sp.; strain GC 1894) was <0.12 µg/mL, the “MIC Streptococcus pyogenes (GC 4563)” value (Streptococcus sp.; strain GC 4563) was <0.12 µg/mL and the “MIC Streptococcus agalactiae (GC 4564)” value (Streptococcus sp.; strain GC 4564) was <0.12 to 0.25 µg/mL. The “MIC Streptococcus pneumoniae (GC 4565)” value (Streptococcus sp.; strain GC 4565) was <0.12 µg/mL, the “MIC Escherichia coli (ATCC 25922)” value (Escherichia coli; strain ATCC 25922) was 32 to 64 µg/mL and the “MIC Escherichia coli (GC 4559)” value (Escherichia coli; strain GC 4559) was 16 to 32 µg/mL. For the same compound, the “MIC Escherichia coli (GC 4560)” value (Escherichia coli; strain GC 4560) was 0.5 to 1 µg/mL, the “MIC Coagulase Negative Staphylococcus (GC 4547)” value (Staphylococcus sp.) was 1 µg/mL (≈ 0.723 µM) and the “MIC Coagulase Negative Staphylococcus (GC 4548)” value (Staphylococcus sp.) was 0.5 to 1 µg/mL. The “MIC Coagulase Negative Staphylococcus (GC 4549)” value (Staphylococcus sp.) was 0.5 µg/mL (≈ 0.361 µM), the “MIC Coagulase Negative Staphylococcus (GC 4551)” value (Staphylococcus sp.) was 1 µg/mL (≈ 0.723 µM) and the “MIC Coagulase Negative Staphylococcus (GC 6257)” value (Staphylococcus sp.) was 0.5 µg/mL (≈ 0.361 µM). For the same compound, the “MIC Staphylococcus aureus (ATCC 29213)” value (Staphylococcus sp.) was 1 µg/mL (≈ 0.723 µM), the “MIC Staphylococcus aureus (GC 1131)” value (Staphylococcus sp.) was 2 µg/mL (≈ 1.45 µM) and the “MIC Staphylococcus aureus (GC 3051)” value (Staphylococcus sp.) was 1 µg/mL (≈ 0.723 µM). For the same compound, the “MIC Staphylococcus aureus (GC 3053)” value (Staphylococcus sp.) was 1 µg/mL (≈ 0.723 µM), the “MIC Staphylococcus aureus (GC 4541)” value (Staphylococcus sp.) was 1 µg/mL (≈ 0.723 µM) and the “MIC Staphylococcus aureus (GC 4542)” value (Staphylococcus sp.) was 0.5 µg/mL (≈ 0.361 µM). For the same compound, the “MIC Staphylococcus aureus (GC 4544)” value (Staphylococcus sp.) was 1 µg/mL (≈ 0.723 µM), the “MIC Staphylococcus aureus (GC 4545)” value (Staphylococcus sp.) was 0.5 to 1 µg/mL and the “MIC Staphylococcus aureus-SMITH (GC 4543)” value (Staphylococcus sp.) was 0.5 to 1 µg/mL. For the same compound, the “MIC Staphylococcus haemolyticus (GC 4546)” value (Staphylococcus sp.) was 0.5 µg/mL (≈ 0.361 µM), the “MIC Staphylococcus haemolyticus (GC 4546)” value (Staphylococcus sp.; strain GC 4546) was 0.5 µg/mL (≈ 0.361 µM) and the “MIC Coagulase Negative Staphylococcus (GC 4547)” value (Staphylococcus sp.; strain GC 4547) was 1 µg/mL (≈ 0.723 µM). For the same compound, the “MIC Coagulase Negative Staphylococcus (GC 4548)” value (Staphylococcus sp.; strain GC 4548) was 0.5 to 1 µg/mL, the “MIC Coagulase Negative Staphylococcus (GC 4549)” value (Staphylococcus sp.; strain GC 4549) was 0.5 µg/mL (≈ 0.361 µM) and the “MIC Coagulase Negative Staphylococcus (GC 4551)” value (Staphylococcus sp.; strain GC 4551) was 1 µg/mL (≈ 0.723 µM). The “MIC Coagulase Negative Staphylococcus (GC 6257)” value (Staphylococcus sp.; strain GC 6257) was 0.5 µg/mL (≈ 0.361 µM), the “MIC Staphylococcus aureus-SMITH (GC 4543)” value (Staphylococcus sp.; strain SMITH GC 4543) was 0.5 to 1 µg/mL and the “MIC Staphylococcus aureus (ATCC 29213)” value (Staphylococcus sp.; strain ATCC 29213) was 1 µg/mL (≈ 0.723 µM). For the same compound, the “MIC Staphylococcus aureus (GC 1131)” value (Staphylococcus sp.; strain GC 1131) was 2 µg/mL (≈ 1.45 µM), the “MIC Staphylococcus aureus (GC 3051)” value (Staphylococcus sp.; strain GC 3051) was 1 µg/mL (≈ 0.723 µM) and the “MIC Staphylococcus aureus (GC 3053)” value (Staphylococcus sp.; strain GC 3053) was 1 µg/mL (≈ 0.723 µM). The “MIC Staphylococcus aureus (GC 4541)” value (Staphylococcus sp.; strain GC 4541) was 1 µg/mL (≈ 0.723 µM), the “MIC Staphylococcus aureus (GC 4542)” value (Staphylococcus sp.; strain GC 4542) was 0.5 µg/mL (≈ 0.361 µM) and the “MIC Staphylococcus aureus (GC 4544)” value (Staphylococcus sp.; strain GC 4544) was 1 µg/mL (≈ 0.723 µM). For the same compound, the “MIC Staphylococcus aureus (GC 4545)” value (Staphylococcus sp.; strain GC 4545) was 0.5 to 1 µg/mL, the “Clinical Chemistry (Day 10) % of Control, AST” value [1] was “+87%” and the “Clinical Chemistry (Day 10) % of Control, BUN” value [1] was “+203%”. For the same compound, the “Clinical Chemistry (Day 10) % of Control, Creatinine” value [1] was “+65%”, the “Anatomical Pathology (Day 10), Heart” value [2] was “+++” and the “Anatomical Pathology (Day 10), Kidney” value [2] was “+++”. For the same compound, the median effective dose (ED50), Staphylococcus aureus-SMITH (GC 4543) [3] was 0.19 mg/kg and the median effective dose (ED50), Streptococcus pneumoniae (GC 1894) [4] was 0.22 mg/kg.
